As a reminder, the IC90 is the concentration at which the effect reaches the 90% level.

Structures can show the parent of a compound that is named as a salt.

The first assay deals with Acinetobacter baumannii ATCC17961. In words: Antimicrobial susceptibility testing: 90% growth inhibitory concentration (IC90) determination in Iso-Sensitest broth, OD600 growth. Type of assay: cell-based. Conditions: Acinetobacter baumannii, ATCC17961, 16 h, read-out: A. baumannii ATCC 17961 IC90 (uM), strain ATCC 17961, OD600 growth over 16 h. The procedure, abridged:
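Growth inhibition is calculated during the logarithmic phase from OD600 readings taken every 20 minutes across 16 h at 35±2° C. Bacteria at ~5×10^(5) CFU/ml face twofold dilution series (e.g. 50 to 0.097 μM final).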
For the compound `Cc1cc(Nc2nccn3c(-c4cn(CC#N)nc4C(F)(F)F)cnc23)cc(F)c1C(=O)N[C@H](C)CNC(=O)C1CCNCC1` [Example 741, (R)-N-(2-(4-((3-(1-(cyanomethyl)-3-(trifluoromethyl)-1H-pyrazol-4-yl)imidazo[1,2-a]pyrazin-8-yl)amino)-2-fluoro-6-methylbenzamido)propyl)piperidine-4-carboxamide formate], the IC90 amounted to 0.53 µM.

For the compound `Cc1cc(Cn2cc(-c3cnc4c(Nc5ccc(C(=O)N6CCNCC6)c(Cl)c5)nccn34)c(C(F)(F)F)n2)nn1C` [Example 185, [2-chloro-4-[[3-[1-[(1,5-dimethylpyrazol-3-yl)methyl]-3-(trifluoromethyl)pyrazol-4-yl]imidazo[1,2-a]pyrazin-8-yl]amino]phenyl]-piperazin-1-ylmethanone formate], the concentration for an effect of 90% (IC90) came to 0.65 µM. On the same count and under the same terms, with `NCCNC(=O)N1CCN(C(=O)c2ccc(Nc3nccn4c(-c5c[nH]nc5C(F)(F)F)cnc34)cc2Cl)CC1` [Example 392, N-(2-aminoethyl)-4-[2-chloro-4-[[3-[3-(trifluoromethyl)-1H-pyrazol-4-yl]imidazo[1,2-a]pyrazin-8-yl]amino]benzoyl]piperazine-1-carboxamide formate] the figure was 0.208 µM; with `C[C@@H](NC(=O)c1ccc(Nc2nccn3c(-c4c[nH]nc4C(F)(F)F)cnc23)cc1Cl)C(=O)N1CC[C@H](N)C1` [Example 94, N-[(2R)-1-[(3S)-3-aminopyrrolidin-1-yl]-1-oxopropan-2-yl]-2-chloro-4-[[3-[3-(trifluoromethyl)-1H-pyrazol-4-yl]imidazo[1,2-a]pyrazin-8-yl]amino]benzamide formate], 1.24 µM; with `N#CCn1cc(-c2cnc3c(Nc4ccc(C(=O)NCC(=O)N5CC[C@@H](N)C5)c(Cl)c4)nccn23)c(C(F)(F)F)n1` [Example 663, N-[2-[(3R)-3-aminopyrrolidin-1-yl]-2-oxo-ethyl]-2-chloro-4-[[3-[1-(cyanomethyl)-3-(trifluoromethyl)pyrazol-4-yl]imidazo[1,2-a]pyrazin-8-yl]amino]benzamide formate], 0.285 µM.

On to `CCc1cc(Nc2nccn3c(-c4cn(CCO)nc4C(F)(F)F)cnc23)ccc1C(=O)NCCOCCN` [Example 305, N-[2-(2-aminoethoxy)ethyl]-2-ethyl-4-[[3-[1-(2-hydroxyethyl)-3-(trifluoromethyl)pyrazol-4-yl]imidazo[1,2-a]pyrazin-8-yl]amino]benzamide formate], for which the 90% effect concentration (IC90) turned out to be 0.406 µM.

As to `O=C(N[C@@H]1CNC[C@H]1O)N1CCN(C(=O)c2ccc(Nc3nccn4c(-c5c[nH]nc5C(F)(F)F)cnc34)cc2Cl)CC1` [Example 441, 4-[2-chloro-4-[[3-[3-(trifluoromethyl)-1H-pyrazol-4-yl]imidazo[1,2-a]pyrazin-8-yl]amino]benzoyl]-N-[(3R,4R)-4-hydroxypyrrolidin-3-yl]piperazine-1-carboxamide formate], the 90% effect concentration (IC90) was 0.617 µM. With `CCc1cc(Nc2nccn3c(-c4cn(CCF)nc4C(F)F)cnc23)ccc1C(=O)N1CCN(C(=O)C2CCNCC2)CC1` [Example 770, (4-(4-((3-(3-(difluoromethyl)-1-(2-fluoroethyl)-1H-pyrazol-4-yl)imidazo[1,2-a]pyrazin-8-yl)amino)-2-ethylbenzoyl)piperazin-1-yl)(piperidin-4-yl)methanone formate], the concentration for an effect of 90% (IC90) was 0.929 µM. Still for that read-out and setting: next, `O=C(N[C@H]1CCNC1)N1CCN(C(=O)c2ccc(Nc3nccn4c(-c5c[nH]nc5C(F)(F)F)cnc34)cc2Cl)CC1` [Example 389, 4-[2-chloro-4-[[3-[3-(trifluoromethyl)-1H-pyrazol-4-yl]imidazo[1,2-a]pyrazin-8-yl]amino]benzoyl]-N-[(3S)-pyrrolidin-3-yl]piperazine-1-carboxamide formate]: 0.136 µM; `CCc1cc(Nc2nccn3c(-c4cn(CCOC)nc4C(F)(F)F)cnc23)ccc1C(=O)NCCOCCN` [Example 34, N-[2-(2-aminoethoxy)ethyl]-2-ethyl-4-[[3-[1-(2-methoxyethyl)-3-(trifluoromethyl)pyrazol-4-yl]imidazo[1,2-a]pyrazin-8-yl]amino]benzamide formate]: 0.367 µM. The same measure, in the same setting: next, `CCc1cc(Nc2nccn3c(-c4cn(CC#N)nc4C(F)(F)F)cnc23)ccc1C(=O)NCCNC(=O)CCN` [Example 566, N-(2-(3-aminopropanamido)ethyl)-4-((3-(1-(cyanomethyl)-3-(trifluoromethyl)-1H-pyrazol-4-yl)imidazo[1,2-a]pyrazin-8-yl)amino)-2-ethylbenzamide formate]: 0.477 µM; `CCc1cc(Nc2nccn3c(-c4cn(CC(F)F)nc4C(F)(F)F)cnc23)ccc1C(=O)N1CC2CC1CN2` (stereo not drawn) [Example 561, (2,5-diazabicyclo [2.2.1]heptan-2-yl)(4-((3-(1(2,2-difluoroethyl)-3-(trifluoromethyl)-1H-pyrazol-4-yl)imidazo[1,2-a]pyrazin-8-yl)amino)-2-ethylphenyl) methanone formate]: 0.909 µM. With `CCc1cc(Nc2nccn3c(-c4cn(CC#N)nc4C(F)(F)F)cnc23)ccc1C(=O)NCCOCCN` [Example 29, N-[2-(2-aminoethoxy)ethyl]-4-[[3-[1-(cyanomethyl)-3-(trifluoromethyl)pyrazol-4-yl]imidazo[1,2-a]pyrazin-8-yl]amino]-2-ethylbenzamide formate], the 90% effect concentration (IC90) was found to be 0.107 µM.

The same assay, now with this note: Acinetobacter baumannii, ATCC17961, 16 h, strain ATCC 17961, OD600 growth over 16 h, read-out: A. baumannii ATCC 17961 IC90.
Regarding `CCc1cc(Nc2nccn3c(-c4cn(CCF)nc4C(F)(F)F)cnc23)ccc1C(=O)N1CCC(CN)CC1` [Example 62, [4-(aminomethyl)piperidin-1-yl]-[2-ethyl-4-[[3-[1-(2-fluoroethyl)-3-(trifluoromethyl)pyrazol-4-yl]imidazo[1,2-a]pyrazin-8-yl]amino]phenyl] methanone], the concentration for an effect of 90% (IC90) was determined as 0.242 µM.

`C#CCn1cc(-c2cnc3c(Nc4ccc(C(=O)NCCOCC(C)(C)N)c(CC)c4)nccn23)c(C(F)(F)F)n1` [Example 44, N-[2-(2-amino-2-methylpropoxy)ethyl]-2-ethyl-4-[[3-[1-prop-2-ynyl-3-(trifluoromethyl)pyrazol-4-yl]imidazo[1,2-a]pyrazin-8-yl]amino]benzamide]: the IC90 came out at 0.059 µM. For the compound `C#CCn1cc(-c2cnc3c(Nc4ccc(C(=O)N5CCN(C(=O)[C@@H]6C[C@@H](O)CN6)CC5)c(CC)c4)nccn23)c(C(F)F)n1` [Example 785, (4-(4-((3-(3-(difluoromethyl)-1-(prop-2-yn-1-yl)-1H-pyrazol-4-yl)imidazo[1,2-a]pyrazin-8-yl)amino)-2-ethylbenzoyl)piperazin-1-yl)((2S,4R)-4-hydroxypyrrolidin-2-yl)methanone], the IC90 is 1.32 µM. On the same count and under the same terms, next, `Cc1cc(Nc2nccn3c(-c4cn(CC#N)nc4C(F)(F)F)cnc23)cc(F)c1C(=O)N1CCN(C(=O)[C@H]2[C@@H]3CNC[C@@H]32)CC1` [Example 676, 2-(4-(8-((4-(4-((1R,5S,6r)-3-azabicyclo[3.1.0]hexane-6-carbonyl)piperazine-1-carbonyl)-3-fluoro-5-methylphenyl)amino)imidazo[1,2-a]pyrazin-3-yl)-3-(trifluoromethyl)-1H-pyrazol-1-yl) acetonitrile formate]: 0.316 µM; `NCCOCCNC(=O)c1ccc(Nc2nccn3c(-c4cn(CCF)nc4C(F)(F)F)cnc23)cc1Cl` [Example 250, N-[2-(2-aminoethoxy)ethyl]-2-chloro-4-[[3-[1-(2-fluoroethyl)-3-(trifluoromethyl)pyrazol-4-yl]imidazo[1,2-a]pyrazin-8-yl]amino]benzamide]: 0.084 µM; `CCc1cc(Nc2nccn3c(-c4cn(CC#N)nc4C(F)F)cnc23)ccc1C(=O)NCCOCCN` [Example 18, N-[2-(2-aminoethoxy)ethyl]-4-[[3-[1-(cyanomethyl)-3-(difluoromethyl)pyrazol-4-yl]imidazo[1,2-a]pyrazin-8-yl]amino]-2-ethylbenzamide]: 0.26 µM. The same measure, in the same setting: with `NCCNC(=O)CNCCNC(=O)c1ccc(Nc2nccn3c(-c4cn(CC(F)F)nc4C(F)(F)F)cnc23)cc1Cl` [Example 820, N-(2-((2-((2-aminoethyl)amino)-2-oxoethyl)amino)ethyl)-2-chloro-4-(3-(1-(2,2-difluoroethyl)-3-(trifluoromethyl)-1H-pyrazol-4-yl)imidazo[1,2-a]pyrazin-8-yl)amino) benzamide formate] the figure was 0.15 µM. Same read-out and setting: next, `CCc1cc(Nc2nccn3c(-c4cn(CCCC#N)nc4C(F)(F)F)cnc23)ccc1C(=O)NC` [Example 343, 4-[[3-[1-(3-cyanopropyl)-3-(trifluoromethyl)pyrazol-4-yl]imidazo[1,2-a]pyrazin-8-yl]amino]-2-ethyl-N-methylbenzamide]: 0.546 µM.

In the case of `CCc1cc(Nc2nccn3c(-c4cn(CCF)nc4C(F)(F)F)cnc23)ccc1C(=O)NCCOC[C@H](C)N` [Example 158, N-[2-[(2S)-2-aminopropoxy]ethyl]-2-ethyl-4-[[3-[1-(2-fluoroethyl)-3-(trifluoromethyl)pyrazol-4-yl]imidazo[1,2-a]pyrazin-8-yl]amino]benzamide], the IC90 came out at 4.03 µM.

The assay is the same for the next values; noted with them: strain ATCC 17961, OD600 growth over 16 h, read-out: A. baumannii ATCC 17961 IC90.
For `CCc1cc(Nc2nccn3c(-c4cn(CC(F)F)nc4C(F)(F)F)cnc23)ccc1C(=O)N[C@H](C)CNC(=O)OC(C)(C)C` [Example 130, tert-butyl N-[(2R)-2-[[4-[[3-[1-(2,2-difluoroethyl)-3-(trifluoromethyl)pyrazol-4-yl]imidazo[1,2-a]pyrazin-8-yl]amino]-2-ethylbenzoyl]amino]propyl] carbamate], the IC90 stood at 1.33 µM. Same read-out and setting: next, `N[C@H]1CC[C@H](NC(=O)N2CCN(C(=O)c3ccc(Nc4nccn5c(-c6c[nH]nc6C(F)(F)F)cnc45)cc3Cl)CC2)C1` [Example 292, N-[(1S,3S)-3-aminocyclopentyl]-4-[2-chloro-4-[[3-[3-(trifluoromethyl)-1H-pyrazol-4-yl]imidazo[1,2-a]pyrazin-8-yl]amino]benzoyl] piperazine-1-carboxamide formate]: 0.354 µM.

For the origin of these results see patent publication US20230203043A1, “NOVEL IMIDAZOPYRAZINE DERIVATIVES” (Hoffmann-La Roche Inc., priority 2020, published 2023).
